In the test the test system is hippocampal neurons. Nature of the test: Measurement of activity relative to BDNF: prevention of degeneration of hippocampal neurons. As to conditions: hippocampal neurons from embryological day 16 mice, assessed 48 hours following cell seeding; BDNF maximum defined as 100%; baseline (CM) approximately 40%. Format: cell-based. The method, then: Compounds of the present application are tested for their ability to prevent the degeneration of hippocampal neurons as described in Massa et al J Neurosci. (2006) 26(20):5288-300. In brief, hippocampal neurons are isolated from embryological day 16 mice and seeded in 96-well tissue culture plates under conditions in which they degenerated in the absence of neurotrophin receptor ligands. Neuronal degeneration is assessed using morphological criteria 48 hours following cell seeding. The neurotrophins brain-derived neurotrophic factor (BDNF) and nerve growth factor (NGF) serve as positive controls. The maximum cell death preventing activity of BDNF is defined as 100% neurotrophic activity. The efficacy of NGF is 80% of that of BDNF. The neurotrophic activity of the test compounds at each applied concentration is quantitated in terms of a percentage of the maximum BDNF-supported survival level. In the presence of culture medium (CM) and the absence of BDNF or compounds, survival is approximately 40% of the BDNF maximum effect and this is regarded as baseline survival. For each compound, dose-response curves are generated and the EC50 and maximum survival percentage are derived.

“NGF: neurotrophin nerve growth factor, serves as positive control in the hippocampal neuron survival assay”: the “efficacy (neurotrophic activity as percentage of the maximum BDNF-supported survival)” value was 80%.

Source of the values: patent US9464066B2, “Deuterated compounds useful for treating neurodegenerative diseases” (PharmatrophiX, Inc., priority 2009, dated 2016).
